Data taken from paper PMC8911971, “Detection of Bacterial α-L-Fucosidases with an Ortho-Quinone Methide-Based Probe and Mapping of the Probe-Protein Adducts” (Molecules, 2022).

Key:
Format in all cases: biochemical
[1] = biological target: T1, TmFuc (Thermotoga maritima, UniProt Q9WYE2); experiment: pepsin digest LC-MS/MS of probe adducts; conditions: covalent after turnover to quinone methide; adducts at W80 or W105, outside the active site
T1 construct: gene TM_0306; recombinant, commercial (Megazyme)
T1 sequence (Q9WYE2 1-449): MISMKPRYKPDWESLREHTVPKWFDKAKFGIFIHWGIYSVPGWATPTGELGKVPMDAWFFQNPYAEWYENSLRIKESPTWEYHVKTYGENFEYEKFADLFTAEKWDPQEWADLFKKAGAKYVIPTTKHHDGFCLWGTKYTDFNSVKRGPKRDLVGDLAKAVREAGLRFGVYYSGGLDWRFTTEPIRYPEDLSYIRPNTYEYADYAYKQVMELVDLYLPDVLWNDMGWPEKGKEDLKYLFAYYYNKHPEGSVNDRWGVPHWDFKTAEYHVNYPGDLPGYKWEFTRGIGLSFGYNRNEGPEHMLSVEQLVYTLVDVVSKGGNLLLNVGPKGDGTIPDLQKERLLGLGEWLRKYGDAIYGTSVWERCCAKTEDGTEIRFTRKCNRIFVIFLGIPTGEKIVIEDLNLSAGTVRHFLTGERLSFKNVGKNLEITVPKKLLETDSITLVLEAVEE

[2] = biological target: T2, AfcA (Bifidobacterium bifidum, UniProt Q6JV24); experiment: probe labelling, click biotinylation, blot chemiluminescence; conditions: 350 uM probe, PBS pH 7.4, 37 C or room temperature (Figure 1); covalent after turnover to quinone methide
T2 construct: catalytic GH95 fragment, residues 577-1474, C-terminal GGSGGSHHHHHHHH tag; pMAL-c4x-1-H(RBS)+ in E. coli BL21(DE3), Ni-NTA and Superdex 200 purified

[3] = biological target: T3, BfFucH (Bacteroides fragilis, UniProt Q5LAD6); experiment: block of AH062 probe labelling, blot chemiluminescence; conditions: 100 uM inhibitor preincubated, 350 uM AH062, PBS pH 7.4; competitive
T3 construct: gene BF9343_3156; codon-optimized gene in pET47b+, expressed in E. coli BL21(DE3), Ni-NTA and Superdex 200 purified; about 50 kDa
T3 sequence (Q5LAD6 21-434): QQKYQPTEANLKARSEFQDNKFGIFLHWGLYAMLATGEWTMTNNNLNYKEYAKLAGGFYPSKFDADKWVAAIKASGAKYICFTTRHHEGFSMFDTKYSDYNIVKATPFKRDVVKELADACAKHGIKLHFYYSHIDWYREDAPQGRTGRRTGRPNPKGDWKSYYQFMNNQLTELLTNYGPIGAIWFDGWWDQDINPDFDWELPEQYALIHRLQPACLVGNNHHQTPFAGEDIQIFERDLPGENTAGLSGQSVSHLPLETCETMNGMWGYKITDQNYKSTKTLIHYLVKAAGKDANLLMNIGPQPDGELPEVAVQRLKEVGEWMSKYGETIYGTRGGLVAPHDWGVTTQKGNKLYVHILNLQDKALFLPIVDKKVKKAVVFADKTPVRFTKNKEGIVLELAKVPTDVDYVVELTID

T2 sequence (Q6JV24 entry or part of it): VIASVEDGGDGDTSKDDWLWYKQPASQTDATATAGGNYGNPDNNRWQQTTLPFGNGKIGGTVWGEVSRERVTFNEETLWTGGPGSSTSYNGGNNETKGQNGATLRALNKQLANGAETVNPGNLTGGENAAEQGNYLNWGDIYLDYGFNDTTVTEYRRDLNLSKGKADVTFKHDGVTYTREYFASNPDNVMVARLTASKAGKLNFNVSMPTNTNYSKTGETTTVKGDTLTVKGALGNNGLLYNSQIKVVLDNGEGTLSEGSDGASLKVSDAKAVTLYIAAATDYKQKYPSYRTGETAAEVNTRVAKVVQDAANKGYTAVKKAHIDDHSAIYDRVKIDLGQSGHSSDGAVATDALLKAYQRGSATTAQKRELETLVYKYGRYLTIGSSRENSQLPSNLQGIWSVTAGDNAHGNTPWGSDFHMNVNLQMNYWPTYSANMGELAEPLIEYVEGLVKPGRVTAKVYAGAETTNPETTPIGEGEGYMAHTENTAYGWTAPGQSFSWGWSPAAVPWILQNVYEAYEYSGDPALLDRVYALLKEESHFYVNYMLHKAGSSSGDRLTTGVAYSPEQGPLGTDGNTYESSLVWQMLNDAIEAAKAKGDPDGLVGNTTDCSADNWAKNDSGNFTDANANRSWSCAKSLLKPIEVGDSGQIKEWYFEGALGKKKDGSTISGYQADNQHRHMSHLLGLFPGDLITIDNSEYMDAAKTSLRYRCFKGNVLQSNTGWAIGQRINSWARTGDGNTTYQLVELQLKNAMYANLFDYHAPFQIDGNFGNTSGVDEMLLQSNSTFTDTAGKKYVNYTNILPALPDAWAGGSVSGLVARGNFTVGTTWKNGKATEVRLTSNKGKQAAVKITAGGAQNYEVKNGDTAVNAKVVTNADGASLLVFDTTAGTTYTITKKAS

SMILES: C[C@@H]1O[C@@H](Oc2ccc(NC(=O)CCOCCOCCOCCN=[N+]=[N-])cc2CF)[C@@H](O)[C@H](O)[C@@H]1O [compound 12, 3-(2-(2-(2-azidoethoxy)ethoxy)ethoxy)-N-(3-(fluoromethyl)-4-(((2S,3S,4R,5S,6S)-3,4,5-trihydroxy-6-methyltetrahydro-2H-pyran-2-yl)oxy)phenyl)propanamide]
- pepsin digest LC-MS/MS of probe adducts [1]: the quinone methide generated from AH062 had labeled either tryptophan W80 or W105
- probe labelling, click biotinylation, blot chemiluminescence [2]: the probe detected the enzyme in a concentration-dependent manner

SMILES: C[C@@H]1NC[C@@H](O)[C@H](O)[C@@H]1O [L-fuconojirimycin]
- block of AH062 probe labelling, blot chemiluminescence [3]: distinguishing the active from the inhibited enzyme (prepared by preincubation with the competitive inhibitor L-fuconojirimycin
